Source: US11976057B2, “MrgX2 antagonists” (GlaxoSmithKline Intellectual Property Development Limited, priority 2020, dated 2024)

molecular target: T1, human MRGPRX2 (Homo sapiens, UniProt Q96LB1); assay: Ca2+ mobilization assay (FLIPR TETRA): inhibition of Cortistatin-14 mediated MRGPRX2 activation
T1 sequence (Q96LB1 1-330): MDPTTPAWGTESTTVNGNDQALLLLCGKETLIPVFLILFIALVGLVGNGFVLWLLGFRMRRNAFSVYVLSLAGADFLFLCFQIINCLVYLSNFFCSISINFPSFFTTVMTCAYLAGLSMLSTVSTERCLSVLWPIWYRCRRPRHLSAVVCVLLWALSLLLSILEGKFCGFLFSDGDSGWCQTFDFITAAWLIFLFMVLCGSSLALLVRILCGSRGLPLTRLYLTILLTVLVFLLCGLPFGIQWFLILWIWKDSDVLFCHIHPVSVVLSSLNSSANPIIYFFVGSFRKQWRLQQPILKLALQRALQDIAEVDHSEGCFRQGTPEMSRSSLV

IC50	Compound
100 to 3160 nM	C[C@@H](C(=O)Nc1ccc(OCC2CC2)nn1)N1CCC(F)(F)C(c2ccc(=O)n(CCS(C)(=O)=O)c2)C1 (stereo partly drawn) [Example 191, (2S)-N-(6-(cyclopropylmethoxy)pyridazin-3-yl)-2-(4,4-difluoro-3-(1-(2-(methylsulfonyl)ethyl)-6-oxo-1,6-dihydropyridin-3-yl)piperidin-1-yl)propanamide]
10 to 100 nM	CC(C(=O)Nc1ccc(Oc2ccc(F)cc2)cn1)N1CCC(F)(F)C(c2ccc(=O)n(CCS(C)(=O)=O)c2)C1 (centres unmarked) [Example 192, 2-(4,4-difluoro-3-(1-(2-(methylsulfonyl)ethyl)-6-oxo-1,6-dihydropyridin-3-yl)piperidin-1-yl)-N-(5-(4-fluorophenoxy)pyridin-2-yl)propanamide]
≤ 10 nM	C[C@@H](C(=O)Nc1ccc(F)cn1)N1CCC(F)(F)[C@@H](c2ccc(=O)n(CC(F)F)c2)C1 [Example 193]
100 to 3160 nM	CC(C)n1cc(C2CN([C@@H](C)C(=O)Nc3ccc(F)cn3)CCC2(F)F)ccc1=O (stereo partly drawn) [Example 194, (2S)-2-(4,4-difluoro-3-(1-isopropyl-6-oxo-1,6-dihydropyridin-3-yl)piperidin-1-yl)-N-(5-fluoropyridin-2-yl)propanamide]
≤ 10 nM	C[C@@H](C(=O)Nc1ccc(F)cn1)N1CCC(F)(F)[C@@H](c2ccc(=O)n(Cc3ccccc3)c2)C1 [Example 195]
10 to 100 nM	CC(C(=O)Nc1ccc(F)cn1)N1CCC(F)(F)C(c2ccc(=O)n(Cc3ccccn3)c2)C1 (centres unmarked) [Example 196, 2-(4,4-difluoro-3-(6-oxo-1-(pyridin-2-ylmethyl)-1,6-dihydropyridin-3-yl)piperidin-1-yl)-N-(5-fluoropyridin-2-yl)propanamide]
10 to 100 nM	CC(C(=O)Nc1ccc(F)cn1)N1CCC(F)(F)C(c2ccc(=O)n(Cc3ccncc3)c2)C1 (centres unmarked) [Example 197, 2-(4,4-difluoro-3-(6-oxo-1-(pyridin-4-ylmethyl)-1,6-dihydropyridin-3-yl)piperidin-1-yl)-N-(5-fluoropyridin-2-yl)propanamide]
10 to 100 nM	CC(C(=O)Nc1ccc(F)cn1)N1CCC(F)(F)C(c2ccc(=O)n(Cc3ncco3)c2)C1 (centres unmarked) [Example 198, 2-(4,4-difluoro-3-(1-(oxazol-2-ylmethyl)-6-oxo-1,6-dihydropyridin-3-yl)piperidin-1-yl)-N-(5-fluoropyridin-2-yl)propanamide]
100 to 3160 nM	C[C@@H](C(=O)Nc1ccc(F)cn1)N1CCC(F)(F)C(c2cc(CO)c(=O)n(CC(F)(F)F)c2)C1 (stereo partly drawn) [Example 199, (2S)-2-(4,4-difluoro-3-(5-(hydroxymethyl)-6-oxo-1-(2,2,2-trifluoroethyl)-1,6-dihydropyridin-3-yl)piperidin-1-yl)-N-(5-fluoropyridin-2-yl)propanamide]
3160 to 31600 nM	Cc1cc(C2CN([C@@H](C)C(=O)Nc3ccc(F)cn3)CCC2(F)F)cn(CC(F)(F)F)c1=O (stereo partly drawn) [Example 200, (2S)-2-(4,4-difluoro-3-(5-methyl-6-oxo-1-(2,2,2-trifluoroethyl)-1,6-dihydropyridin-3-yl)piperidin-1-yl)-N-(5-fluoropyridin-2-yl)propanamide]
≤ 10 nM	CC(C(=O)Nc1ccc(Oc2ccccc2)cn1)N1CCC(F)(F)C(c2c[nH]c(=O)c(CN)c2)C1 (centres unmarked) [Example 202, 2-(3-(5-(aminomethyl)-6-oxo-1,6-dihydropyridin-3-yl)-4,4-difluoropiperidin-1-yl)-N-(5-phenoxypyridin-2-yl)propanamide]
10 to 100 nM	C[C@@H](C(=O)Nc1ccc(OCC2CC2)nn1)N1CCC(F)(F)[C@@H](c2c[nH]c(=O)c(CN)c2)C1 [Example 203, (S)-2-((S)-3-(5-(aminomethyl)-6-oxo-1,6-dihydropyridin-3-yl)-4,4-difluoropiperidin-1-yl)-N-(6-(cyclopropylmethoxy)pyridazin-3-yl)propanamide]
≤ 10 nM	C[C@@H](C(=O)Nc1ccc(Oc2ccc(F)cc2)cn1)N1CCC(F)(F)[C@@H](c2c[nH]c(=O)c(CN)c2)C1 [Example 204, (S)-2-((S)-3-(5-(aminomethyl)-6-oxo-1,6-dihydropyridin-3-yl)-4,4-difluoropiperidin-1-yl)-N-(5-(4-fluorophenoxy)pyridin-2-yl)propanamide]
≤ 10 nM	C[C@@H](C(=O)Nc1ccc(Oc2ccc(F)cc2F)cn1)N1CCC(F)(F)[C@@H](c2c[nH]c(=O)c(CN)c2)C1 [Example 205, (S)-2-((S)-3-(5-(aminomethyl)-6-oxo-1,6-dihydropyridin-3-yl)-4,4-difluoropiperidin-1-yl)-N-(5-(2,4-difluorophenoxy)pyridin-2-yl)propanamide]
10 to 100 nM	C[C@@H](C(=O)Nc1cnc(Oc2ccc(F)cc2)cn1)N1CCC(F)(F)[C@@H](c2c[nH]c(=O)c(CN)c2)C1 [Example 206, (S)-2-((S)-3-(5-(aminomethyl)-6-oxo-1,6-dihydropyridin-3-yl)-4,4-difluoropiperidin-1-yl)-N-(5-(4-fluorophenoxy)pyrazin-2-yl)propanamide]
10 to 100 nM	C[C@@H](C(=O)Nc1cnc(Oc2ccccc2)cn1)N1CCC(F)(F)[C@@H](c2c[nH]c(=O)c(CN)c2)C1 [Example 207, (S)-2-((S)-3-(5-(aminomethyl)-6-oxo-1,6-dihydropyridin-3-yl)-4,4-difluoropiperidin-1-yl)-N-(5-phenoxypyrazin-2-yl)propanamide]
≤ 10 nM	C[C@@H](C(=O)Nc1ccc(Oc2ccc(F)cn2)cn1)N1CCC(F)(F)[C@@H](c2c[nH]c(=O)c(CN)c2)C1 [Example 208, (S)-2-((S)-3-(5-(aminomethyl)-6-oxo-1,6-dihydropyridin-3-yl)-4,4-difluoropiperidin-1-yl)-N-(5-((5-fluoropyridin-2-yl)oxy)pyridin-2-yl)propanamide]
≤ 10 nM	C[C@@H](C(=O)Nc1ccc(Oc2ccc(F)cc2)cn1)N1CCC(F)(F)C(c2c[nH]c(=O)c(C(O)C(F)(F)F)c2)C1 (stereo partly drawn) [Example 211, (2S)-2-(4,4-difluoro-3-(6-oxo-5-(2,2,2-trifluoro-1-hydroxyethyl)-1,6-dihydropyridin-3-yl)piperidin-10-yl)-N-(5-(4-fluorophenoxy)pyridin-2-yl)propanamide]
≤ 10 nM	C[C@@H](C(=O)Nc1ccc(Oc2ccc(F)cc2F)cn1)N1CCC(F)(F)C(c2c[nH]c(=O)c(C(O)C(F)(F)F)c2)C1 (stereo partly drawn) [Example 212, (2S)-2-(4,4-difluoro-3-(6-oxo-5-(2,2,2-trifluoro-1-hydroxyethyl)-1,6-dihydropyridin-3-yl)piperidin-1-yl)-N-(5-(2,4-difluorophenoxy)pyridin-2-yl)propanamide]
100 to 3160 nM	CC(C(=O)Nc1ccc(F)cn1)N1CCC(F)(F)C(c2c[nH]c(=O)c(CS(C)(=O)=O)c2)C1 (centres unmarked) [Example 213, 2-(4,4-difluoro-3-(5-((methylsulfonyl)methyl)-6-oxo-1,6-dihydropyridin-3-yl)piperidin-1-yl)-N-(5-fluoropyridin-2-yl)propanamide]
≤ 10 nM	C[C@@H](C(=O)Nc1ccc(Oc2ccc(F)cc2)cn1)N1CCC(F)(F)[C@@H](c2c[nH]c(=O)c(CS(C)(=O)=O)c2)C1 [Example 214, (S)-2-((S)-4,4-difluoro-3-(5-((methylsulfonyl)methyl)-6-oxo-1,6-dihydropyridin-3-yl)piperidin-1-yl)-N-(5-(4-fluorophenoxy)pyridin-2-yl)propanamide]
10 to 100 nM	C[C@@H](C(=O)Nc1cnc(Oc2ccc(F)cc2)cn1)N1CCC(F)(F)[C@@H](c2c[nH]c(=O)c(CS(C)(=O)=O)c2)C1 [Example 215, (S)-2-((S)-4,4-difluoro-3-(5-((methylsulfonyl)methyl)-6-oxo-1,6-dihydropyridin-3-yl)piperidin-1-yl)-N-(5-(4-fluorophenoxy)pyrazin-2-yl)propanamide]
≤ 10 nM	C[C@@H](C(=O)Nc1ccc(Oc2ccc(F)cc2F)cn1)N1CCC(F)(F)[C@@H](c2c[nH]c(=O)c(CS(C)(=O)=O)c2)C1 [Example 216, (S)-2-((S)-4,4-difluoro-3-(5-((methylsulfonyl)methyl)-6-oxo-1,6-dihydropyridin-3-yl)piperidin-1-yl)-N-(5-(2,4-difluorophenoxy)pyridin-2-yl)propanamide]
100 to 3160 nM	Cc1cc(C2CN([C@@H](C)C(=O)Nc3ccc(F)cn3)CCC2(F)F)cc[n+]1[O-] (stereo partly drawn) [Example 217, 4-(4,4-difluoro-1l-((S)-1-((5-fluoropyridin-2-yl)amino)-1-oxopropan-2-yl)piperidin-3-yl)-2-methylpyridine 1-oxide]
10 to 100 nM	C[C@@H](C(=O)Nc1ccc(F)cn1)N1CCC(F)(F)[C@@H](c2cc[n+]([O-])c(CC(F)(F)F)c2)C1 [Example 219]
≤ 10 nM	C[C@@H](C(=O)Nc1ccc(OCC2CC2)nn1)N1CCC(F)(F)[C@@H](c2cc[n+]([O-])c(CC(F)(F)F)c2)C1 [Example 220]
10 to 100 nM	C[C@@H](C(=O)Nc1ccc(OCC2CC2)nn1)N1CCC(F)(F)C(c2c[nH]c(=O)c(Br)c2)C1 (stereo partly drawn) [Example 221, (2S)-2-(3-(5-bromo-6-oxo-1,6-dihydropyridin-3-yl)-4,4-difluoropiperidin-1-yl)-N-(6-(cyclopropylmethoxy)pyridazin-3-yl)propanamide]
10 to 100 nM	CC(N)c1cc(C2CN([C@@H](C)C(=O)Nc3ccc(OCC4CC4)nn3)CCC2(F)F)c[nH]c1=O (stereo partly drawn) [Example 222, (2S)-2-(3-(5-(1-aminoethyl)-6-oxo-1,6-dihydropyridin-3-yl)-4,4-difluoropiperidin-1-yl)-N-(6-(cyclopropylmethoxy)pyridazin-3-yl)propanamide]
10 to 100 nM	C[C@@H](C(=O)Nc1ccc(OCC2CC2)nn1)N1CCC(F)(F)C(c2c[nH]c(=O)c(C#N)c2)C1 (stereo partly drawn) [Example 223, (2S)-2-(3-(5-cyano-6-oxo-1,6-dihydropyridin-3-yl)-4,4-difluoropiperidin-1-yl)-N-(6-(cyclopropylmethoxy)pyridazin-3-yl)propanamide]
